Results reported in patent US5703094A, “Quinolone- and naphthyridonecarboxylic acid derivatives” (Bayer Aktiengesellschaft, priority 1995, dated 1997).
≈ marks a conversion by molar mass, not a printed value.

What was measured:
Staph. aureus ICB 25701 = assay: minimum inhibitory concentration, series dilution method on Iso-Sensitest agar; format: cell-based; details: Staphylococcus aureus, ICB25701, 37° C., about 20 hours
Protocol: (§1) Tables 9 and 10 show the minimum inhibitory concentrations (MIC values), as a measure of the antibacterial activity, and the ID50 values, as a measure of the interactions with mammalian DNA of a substance, both for compounds according to the invention and for reference compounds from the prior art (EP 520 240).
(§2) The minimum inhibitory concentrations (MIC) were determined by a series dilution method on Iso-Sensitest agar (Oxoid). For each test substance, a series of agar plates each comprising concentrations of the active compound decreasing by double dilution in each case was prepared. The agar plates were inoculated with a multipoint inoculator (Denley). Overnight cultures of the pathogens which had been diluted beforehand such that each inoculation point comprised about 10^4 colony-forming particles were used for the inoculation. The inoculated agar plates were incubated at 37° C. and the germ growth was read off after about 20 hours. The MIC value (μg/ml) indicates the lowest active compound concentration at which no growth was detectable with the naked eye.

Ps. aeruginosa Walter = assay: as above; format: cell-based; details: Pseudomonas aeruginosa, 37° C., about 20 hours
Protocol: as §1, §2

E. coli Neumann = assay: as above; format: cell-based; details: Escherichia coli, 37° C., about 20 hours
Protocol: as §1, §2

Staph. aureus 133 = assay: as above; format: cell-based; details: Staphylococcus aureus, 37° C., about 20 hours
Protocol: as §1, §2

[1] = inhibition of DNA synthesis in CHO-KI cells (interactions with mammalian DNA), fluorophotometric; format: cell-based, Chinese hamster; details: hamster, cho-k1 cells, measure of interactions with mammalian DNA, read-out: ID50 (concentration at which DNA synthesis is inhibited by 50%)
Source text: as §1
The ID50 is understood as meaning the concentration of a substance at which DNA synthesis in cells from ovaries of the Chinese hamster (CHO-KI) is inhibited by 50%. This value is determined after incubation of the corresponding substances in decreasing dilution stages over defined periods of time. For this, the DNA synthesis in CHO-KI cells is determined in comparison with controls by means of fluorophotometric methods.

Row | MIC (Staph. aureus ICB 25701) [µg/mL] | MIC (Ps. aeruginosa Walter) [µg/mL] | MIC (E. coli Neumann) [µg/mL] | MIC (Staph. aureus 133) [µg/mL] | IC50 [1] [µg/mL] | Compound
1 | ≤ 0.015 | 0.125 (≈ 0.311 µM) | ≤ 0.015 | ≤ 0.015 | 4 (≈ 9.96 µM) | N[C@@H]1CCC=C2CN(c3c(F)cc4c(=O)c(C(=O)O)cn(C5CC5)c4c3F)C[C@@H]21 (racemic) [Example 1, 7-[(3aRS,4RS)-4-amino-2,3,3a,4,5,6-hexahydro-1H-isoindol-2-yl]-1-cyclopropyl-6,8-difluoro-1,4-dihydro-4-oxo-3-quinolinecarboxylic acid]
2 | 0.125 (≈ 0.326 µM) | 1 (≈ 2.61 µM) | ≤ 0.015 | ≤ 0.015 | 2 (≈ 5.22 µM) | N[C@@H]1CCC=C2CN(c3cc4c(cc3F)c(=O)c(C(=O)O)cn4C3CC3)C[C@@H]21 (racemic) [Example 2, 7-[(3aRS,4RS)-4-amino-2,3,3a,4,5,6-hexahydro-1H-isoindol-2-yl]-1-cyclopropyl-6-fluoro-1,4-dihydro-4-oxo-3-quinolinecarboxylic acid]
3 | ≤ 0.015 | 0.5 (≈ 1.2 µM) | ≤ 0.015 | ≤ 0.015 | 0.1 (≈ 0.239 µM) | N[C@@H]1CCC=C2CN(c3c(F)cc4c(=O)c(C(=O)O)cn(C5CC5)c4c3Cl)C[C@@H]21 (racemic) [Example 3, 7-[(3aRS,4RS)-4-amino-2,3,3a,4,5,6-hexahydro-1H-isoindol-2-yl]-8-chloro-1-cyclopropyl-6-fluoro-1,4-dihydro-4-oxo-3-quinolinecarboxylic acid]
4 | 0.03 (≈ 0.0715 µM) | 0.25 (≈ 0.596 µM) | ≤ 0.015 | ≤ 0.015 | 2 (≈ 4.77 µM) | N[C@@H]1CCC=C2CN(c3c(F)cc4c(=O)c(C(=O)O)cn([C@@H]5C[C@@H]5F)c4c3F)C[C@@H]21 (relative stereo) [Example 4, 7-[(3aRS,4RS)-4-amino-2,3,3a,4,5,6-hexahydro-1H-isoindol-2-yl]-6,8-difluoro-1-(cis-2-fluorocyclopropyl)-1,4-dihydro-4-oxo-3-quinolinecarboxylic acid]
5 | 0.03 (≈ 0.0747 µM) | 0.25 (≈ 0.623 µM) | ≤ 0.015 | ≤ 0.015 | 0.01 (≈ 0.0249 µM) | NC1C=CCC2CN(c3c(F)cc4c(=O)c(C(=O)O)cn(C5CC5)c4c3F)CC12 (centres unmarked) [Example 17 B, 7(4-amino-1,3,3a,4,7,7a-hexahydro-isoindol-2-yl)-1-cyclopropyl-6,8-difluoo-1,4-dihydro-4-oxo-3-quinolinecarboxylic acid, reference compound]
6 | ≤ 0.015 | 0.25 (≈ 0.598 µM) | ≤ 0.015 | ≤ 0.015 | 0.06 (≈ 0.144 µM) | NC1C=CCC2CN(c3c(F)cc4c(=O)c(C(=O)O)cn(C5CC5)c4c3Cl)CC12 (centres unmarked) [Example 18 A, 7(4-amino-1,3,3a4,7,7a-hexahydro-isoindol-2-yl)-8-chloro-1-cyclopropyl-6-luoro-1,4-dihydro-4-oxo-3-quinolinecarboxylic acid, reference compound]
7 | 1 (≈ 2.61 µM) | 1 (≈ 2.61 µM) | ≤ 0.015 | ≤ 0.015 | 1 (≈ 2.61 µM) | NC1C=CCC2CN(c3cc4c(cc3F)c(=O)c(C(=O)O)cn4C3CC3)CC12 (centres unmarked) [Example 19, 7(4-amino-1,3,3a,4,7,7a-hexahydro-isoindol-2-yl)-1-cyclopropyl-6-fluoro-14-dihydro-4-oxo-3-quinolinecarboxylic acid, reference compound]
